Results from US8252781B2, “1,2-diazetidin-3-one derivatives and drugs containing same” (Kowa Company, Ltd., priority 2008, dated 2012).
Read-outs that look alike come from different tables or passages of the source.

Key:
Format in all cases: biochemical
human 11β-HSD2 = molecular target: T1, human 11β-HSD2 (Homo sapiens, UniProt P80365); test: Enzyme inhibitory activity, human 11β-HSD2 (lysate of stably expressing HEK293 cells, cortisol by competitive ELISA); conditions: Table 1; human 11β-HSD2, cell lysate, 37° C. for 1 hour; read-out: h HSD2 in vitro assay (IC50 uM)
T1 construct: The obtained PCR products of about 0.9 kbp, 1.2 kbp, and 0.9 kbp were subcloned into an expression vector pcDNA3.1+/Zeo; expressed in transfected cells
T1 sequence (P80365 1-405): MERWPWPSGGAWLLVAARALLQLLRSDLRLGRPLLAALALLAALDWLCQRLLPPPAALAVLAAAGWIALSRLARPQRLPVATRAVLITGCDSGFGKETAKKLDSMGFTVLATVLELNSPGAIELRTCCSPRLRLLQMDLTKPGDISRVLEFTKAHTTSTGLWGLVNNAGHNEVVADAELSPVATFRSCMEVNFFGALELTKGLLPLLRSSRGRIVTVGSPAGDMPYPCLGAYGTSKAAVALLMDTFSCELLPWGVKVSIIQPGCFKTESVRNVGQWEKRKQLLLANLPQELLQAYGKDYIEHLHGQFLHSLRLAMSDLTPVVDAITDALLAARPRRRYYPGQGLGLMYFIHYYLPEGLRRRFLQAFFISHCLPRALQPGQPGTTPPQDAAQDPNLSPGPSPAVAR
Experimental: 1. Human 11β-HSD1-, Human 11β-HSD2- and Mouse 11β-HSD1-Gene Clonings and Establishment of Stably Expressing Cells
Human 11β-HSD1-, human 11β-HSD2-, and mouse 11β-HSD1-gene clonings were conducted using as a template a reverse transcription product of human-liver RNA, human-kidney RNA (CELL APPLICATIONS), and mouse-kidney RNA respectively, by means of PCR cloning with reference to nucleotide sequences of Genbank Accession Nos. NM_005525, NM_000196, and NM_008288. The obtained PCR products of about 0.9 kbp, 1.2 kbp, and 0.9 kbp were subcloned into an expression vector pcDNA3.1+/Zeo (Invitrogen).
Human 11β-HSD1- and human 11β-HSD2-expressing vectors were transfected into human kidney-derived cell line, HEK293 cells, using a transfection reagent, jet PEI (Funakoshi). Mouse 11β-HSD1 was transfected to Chinese hamster ovary-derived cell line, CHO-K1 cells. Selection was conducted with 200-400 μg/mL of zeocine (Invitrogen) to provide stably expressing-cell clones. The stably expressing cells were suspended in buffer solution A (20 mmol/L Tris-HCl, pH 7.4, 250 mmol/L sucrose, 1 mmol/L EGTA, 1 mmol/L EDTA, 1 mmol/L MgCl2), sonicated, and then stored at −80° C.
2. Assay of Enzyme Inhibitory Activity
An enzymatic reaction was conducted using a polystyrene 96-well plate. Each well was added with 1 μL of a test agent dissolved in DMSO and then diluted (0.003 to 3 mmol/L), and further added with 10 μL of cell lysate diluted to a concentration of 0.1 mg/mL to 0.4 mg/mL. Next, 90 μL of buffer solution A containing substrate (100 nmol/L cortisone or cortisol) and coenzyme (400 μmol/L NADPH or NAD+) was added and the mixture was incubated at 37° C. for 1 hour. The enzymatic reaction was stopped by treating at 95° C. for 3 minutes. Cortisol that was present in the reaction solution was determined by a competitive ELISA shown below.
Anti-rabbit IgG antibody (Chemi-con) diluted to 2 μg/mL with carbonate buffer solution (pH 9.6) was added in 100 μL each to a 96-well immuno plate (Nunc) and immobilized by an incubation at 4° C. overnight. 50 μL of enzymatic reaction solution was put onto the plates, and further, anti-cortisol antibody (Cosmo Bio) and HRP-labeled cortisol (Cosmo Bio), diluted with buffer solution B (25 mmol/L Tris-HCl pH 7.4, 137 mmol/L NaCl, 2.68 mmol/L KCl), were added in 50 μL respectively and incubated at 4° C. overnight. After washed three times with buffer solution B containing 0.05% Tween 20, the plates were allowed to develop color by adding 100 μL of color reagent, TMB (Moss). The color reaction was stopped by 25 μL of 1 mol/L sulfuric acid and the absorbance was determined at 450 nm with a microplate reader (Molecular Device, VersaMax).
The values of human 11β-HSD1, human 11β-HSD2, and mouse 11β-HSD1 activities were subtracted from 100, and the resultant values were regarded as the respective 11β-HSD inhibition rates of example compounds. […] The comparison of human 11β-HSD1 and human 11β-HSD2 inhibiting activities is shown in Table 1, and the comparison of human 11β-HSD1 and mouse 11β-HSD1 inhibiting activities is shown in Table 2.

human 11β-HSD1 = molecular target: T2, human 11β-HSD1 (Homo sapiens, UniProt P28845); test: Enzyme inhibitory activity, human 11β-HSD1 (lysate of stably expressing HEK293 cells, cortisol by competitive ELISA); conditions: human 11β-HSD1, cell lysate, 37° C. for 1 hour, read-out: h HSD1 in vitro assay (IC50 uM)
T2 construct: The obtained PCR products of about 0.9 kbp, 1.2 kbp, and 0.9 kbp were subcloned into an expression vector pcDNA3.1+/Zeo; expressed in transfected cells
T2 sequence (P28845 whole entry): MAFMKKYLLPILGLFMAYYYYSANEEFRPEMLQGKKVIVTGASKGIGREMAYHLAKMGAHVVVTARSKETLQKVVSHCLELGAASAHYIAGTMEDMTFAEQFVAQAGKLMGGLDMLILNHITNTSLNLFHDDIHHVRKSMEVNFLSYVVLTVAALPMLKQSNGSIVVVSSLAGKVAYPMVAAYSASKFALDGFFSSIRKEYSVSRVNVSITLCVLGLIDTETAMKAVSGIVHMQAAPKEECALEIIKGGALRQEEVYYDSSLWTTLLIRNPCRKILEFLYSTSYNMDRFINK
Procedure, shortened: (§1)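 Sonicated lysates of stably transfected cells (diluted to 0.1–0.4 mg/mL before addition) reacted for 1 h at 37 °C in pH 7.4 Tris/sucrose/EGTA/EDTA/MgCl2 buffer with 100 nmol/L cortisone or cortisol and 400 μmol/L NADPH or NAD+, then were heat-stopped at 95 °C. Inhibition rate = 100 minus residual activity.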

mouse 11β-HSD1 = molecular target: T3, mouse 11β-HSD1 (Mus musculus, UniProt P50172); test: Enzyme inhibitory activity, mouse 11β-HSD1 (lysate of stably expressing CHO-K1 cells, cortisol by competitive ELISA); conditions: Table 2; mouse 11β-HSD1, cell lysate, 37° C. for 1 hour; read-out: m HSD1 in vitro assay (IC50 uM)
T3 construct: The obtained PCR products of about 0.9 kbp, 1.2 kbp, and 0.9 kbp were subcloned into an expression vector pcDNA3.1+/Zeo; expressed in transfected cells
T3 sequence (P50172 whole entry): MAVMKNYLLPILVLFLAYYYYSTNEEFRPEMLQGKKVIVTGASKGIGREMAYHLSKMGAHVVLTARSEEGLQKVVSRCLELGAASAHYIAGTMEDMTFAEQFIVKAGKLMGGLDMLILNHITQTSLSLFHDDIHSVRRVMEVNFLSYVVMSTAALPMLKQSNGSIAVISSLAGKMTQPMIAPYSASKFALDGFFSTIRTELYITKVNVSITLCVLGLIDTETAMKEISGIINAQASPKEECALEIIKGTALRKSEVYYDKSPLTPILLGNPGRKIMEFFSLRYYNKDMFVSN
Procedure, shortened: as §1

| IC50 (human 11β-HSD2) [µM] | IC50 (human 11β-HSD1; Table 1) [µM] | IC50 (mouse 11β-HSD1) [µM] | IC50 (human 11β-HSD1; Table 2) [µM] | Compound |
| --- | --- | --- | --- | --- |
| > 30 | 0.72 | – | – | CC1(C)C(=O)N(C2C3CC4CC(C3)CC2C4)N1C(=O)c1ccccc1F (stereo not drawn) [Example 119, 1-[(2-fluorophenyl)carbonyl]-4,4-dimethyl-2-(adamantan-2-yl)-1,2-diazetidin-3-one] |
| > 30 | 0.27 | – | – | CC1(C)C(=O)N(C2C3CC4CC(C3)CC2C4)N1C(=O)c1ccccc1Br (stereo not drawn) [Example 120, 1-[(2-bromophenyl)carbonyl]-4,4-dimethyl-2-(adamantan-2-yl)-1,2-diazetidin-3-one] |
| 14 | 0.071 | – | – | CC1(C)C(=O)N(C2C3CC4CC(C3)CC2C4)N1C(=O)c1cccc2ccccc12 (stereo not drawn) [Example 141, 4,4-dimethyl-1-(naphthalen-1-ylcarbonyl)-2-(adamantan-2-yl)-1,2-diazetidin-3-one] |
| 3 to 30 | 0.062 | – | – | CC1(C)C(=O)N(C2C3CC4CC(C3)CC2C4)N1c1ccccc1 (stereo not drawn) [Example 181, 4,4-dimethyl-1-phenyl-2-(adamantan-2-yl)-1,2-diazetidin-3-one] |
| 3 to 30 | 0.022 | – | – | CC1(C)C(=O)N(C2C3CC4CC(C3)CC2C4)N1c1ccccc1Cl (stereo not drawn) [Example 189, 1-(2-chlorophenyl)-4,4-dimethyl-2-(adamantan-2-yl)-1,2-diazetidin-3-one] |
| 3 to 30 | 0.093 | – | – | CC1(C)C(=O)N(C2C3CC4CC(C3)CC2C4)N1c1cccc(Cl)c1 (stereo not drawn) [Example 190, 1-(3-chlorophenyl)-4,4-dimethyl-2-(adamantan-2-yl)-1,2-diazetidin-3-one] |
| > 30 | 0.026 | – | – | COc1ccc(N2N(C3C4CC5CC(C4)CC3C5)C(=O)C2(C)C)cc1 (stereo not drawn) [Example 203, 1-(4-methoxyphenyl)-4,4-dimethyl-2-(adamantan-2-yl)-1,2-diazetidin-3-one] |
| 3 to 30 | 0.02 | – | – | CC1(C)C(=O)N(C2C3CC4CC(C3)CC2C4)N1c1ccc(Cl)cc1Cl (stereo not drawn) [Example 208, 1-(2,4-dichlorophenyl)-4,4-dimethyl-2-(adamantan-2-yl)-1,2-diazetidin-3-one] |
| > 30 | 0.088 | – | – | CC1(C)C(=O)N([C@H]2C3CC4CC2C[C@](O)(C4)C3)N1c1cccc(Cl)c1Cl [Example 231, trans-1-(2,3-dichlorophenyl)-2-(5-hydroxyadamantan-2-yl)-4,4-dimethyl-1,2-diazetidin-3-one] |
| – | 0.02 | 0.38 | – | CC1(C)C(=O)N([C@H]2C3CC4CC2C[C@](O)(C4)C3)N1c1ccc(F)c2ccccc12 [Example 238, trans-1-(4-fluoronaphthalen-1-yl)-2-(5-hydroxyadamantan-2-yl)-4,4-dimethyl-1,2-diazetidin-3-one] |
| – | 0.027 | 0.26 | – | CC1(C)C(=O)N([C@H]2C3CC4CC2C[C@@](O)(C4)C3)N1c1cccc2ccccc12 [Example 247, cis-2-(5-hydroxyadamantan-2-yl)-4,4-dimethyl-1-(naphthalen-1-yl)-1,2-diazetidin-3-one] |
| – | 0.013 | 0.78 | – | CC1(C)C(=O)N([C@H]2C3CC4CC2C[C@@](O)(C4)C3)N1c1ccc(F)c2ccccc12 [Example 249, cis-1-(4-fluoronaphthalen-1-yl)-2-(5-hydroxyadamantan-2-yl)-4,4-dimethyl-1,2-diazetidin-3-one] |
| – | 0.034 | 0.24 | – | COCOc1ccccc1N1N([C@H]2C3CC4CC2C[C@](Cl)(C4)C3)C(=O)C1(C)C [Example 252, trans-2-(5-chloroadamantan-2-yl)-1-[2-(methoxymethoxy)phenyl]-4,4-dimethyl-1,2-diazetidin-3-one] |
| – | 0.012 | 0.075 | – | CC1(C)C(=O)N([C@H]2C3CC4CC2C[C@](Cl)(C4)C3)N1c1cccc2ccccc12 [Example 254, trans-2-(5-chloroadamantan-2-yl)-4,4-dimethyl-1-(naphthalen-1-yl)-1,2-diazetidin-3-one] |
| – | 0.003 | 0.18 | – | CC1(C)C(=O)N([C@H]2C3CC4CC2C[C@](Cl)(C4)C3)N1c1ccc(F)c2ccccc12 [Example 255, trans-2-(5-chloroadamantan-2-yl)-1-(4-fluoronaphthalen-1-yl)-4,4-dimethyl-1,2-diazetidin-3-one] |
| – | 0.24 | 0.24 | – | CC1(C)C(=O)N([C@H]2C3CC4CC2C[C@@](Cl)(C4)C3)N1c1cccc2ccccc12 [Example 257, cis-2-(5-chloroadamantan-2-yl)-4,4-dimethyl-1-(naphthalen-1-yl)-1,2-diazetidin-3-one] |
| – | – | 0.7 | 0.45 | CC1(C)C(=O)N(C2C3CC4CC(C3)CC2C4)N1CCCc1ccccc1 (stereo not drawn) [Example 261, 4,4-dimethyl-1-(3-phenylpropyl)-2-(adamantan-2-yl)-1,2-diazetidin-3-one] |
| – | – | 0.47 | 0.55 | CC1(C)C(=O)N(C2C3CC4CC(C3)CC2C4)N1CCc1ccccc1 (stereo not drawn) [Example 266, 4,4-dimethyl-1-(2-phenylethyl)-2-(adamantan-2-yl)-1,2-diazetidin-3-one] |
| – | 0.02 | 0.1 | 0.02 | CC1(C)C(=O)N(C2C3CC4CC2CC(C(N)=O)(C4)C3)N1c1cccc2ccccc12 (stereo not drawn) [Example 273, cis-4-[2-(naphthalen-1-yl)-3,3-dimethyl-4-oxo-1,2-diazetidin-1-yl]adamantane-1-carboxamide] |
| – | 0.011 | 0.25 | – | CC1(C)C(=O)N([C@H]2C3CC4CC2C[C@](C(=O)O)(C4)C3)N1c1cccc2ccccc12 [Example 274, trans-4-[2-(naphthalen-1-yl)-3,3-dimethyl-4-oxo-1,2-diazetidin-1-yl]adamantane-1-carboxylic acid] |
| – | 0.011 | 0.25 | – | CC1(C)C(=O)N([C@H]2C3CC4CC2C[C@](C(N)=O)(C4)C3)N1c1cccc2ccccc12 [Example 275, trans-4-[2-(naphthalen-1-yl)-3,3-dimethyl-4-oxo-1,2-diazetidin-1-yl]adamantane-1-carboxamide] |
| – | 0.007 | 0.4 | 0.007 | CC1(C)C(=O)N(C2C3CC4CC2CC(C(N)=O)(C4)C3)N1c1cccc(Cl)c1Cl (stereo not drawn) [Example 276, cis-4-[2-(2,3-dichlorophenyl)-3,3-dimethyl-4-oxo-1,2-diazetidin-1-yl]adamantane-1-carboxamide] |
| – | 0.007 | 0.4 | – | CC1(C)C(=O)N([C@H]2C3CC4CC2C[C@](C(N)=O)(C4)C3)N1c1cccc(Cl)c1Cl [Example 277, trans-4-[2-(2,3-dichlorophenyl)-3,3-dimethyl-4-oxo-1,2-diazetidin-1-yl]adamantane-1-carboxamide] |
